Measurements published in patent US20050282840A1, “Methods of modulating neurotrophin-mediated activity” (PainCeptor Pharma Corporation, priority 2004, published 2005).
Where two headings read alike, the source gives them in different places.

Columns and labels:
[1] = target: T1, p75^NTR receptors (PC12 cells) (Rattus norvegicus, UniProt P07174); experiment: Basic screening assay: binding of 125I-BDNF to PC12 cells; conditions: read-out: BDNF Activity % Maximal Binding
T1 construct: endogenous in cells; host or cells: PC12 cells
T1 sequence (P07174 30-425): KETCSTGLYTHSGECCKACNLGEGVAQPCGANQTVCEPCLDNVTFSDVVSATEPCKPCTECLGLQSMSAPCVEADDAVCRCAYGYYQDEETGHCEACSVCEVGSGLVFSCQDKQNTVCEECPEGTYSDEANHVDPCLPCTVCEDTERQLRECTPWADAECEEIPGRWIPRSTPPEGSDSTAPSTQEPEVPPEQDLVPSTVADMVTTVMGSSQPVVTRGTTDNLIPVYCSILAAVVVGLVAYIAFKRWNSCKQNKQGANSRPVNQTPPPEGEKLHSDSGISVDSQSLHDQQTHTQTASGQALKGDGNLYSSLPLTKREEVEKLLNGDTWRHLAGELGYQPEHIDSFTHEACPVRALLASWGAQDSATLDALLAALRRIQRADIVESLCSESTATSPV
T1 sequence (P23560 129-247 partner): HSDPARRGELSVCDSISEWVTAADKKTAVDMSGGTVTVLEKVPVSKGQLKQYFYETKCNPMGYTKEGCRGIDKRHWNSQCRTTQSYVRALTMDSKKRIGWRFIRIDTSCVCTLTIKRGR
Experimental: (§1) The compounds were screened for effects on binding of ^125I-BDNF or ^125I-NGF to PC12 cells (p75^NTR receptors), and those that inhibited binding were further tested to determine the EC50 for this inhibition.
(§2) PC12 cells were cultured and prepared for binding assays as described in Example 1.
(§3) Lypophilized Peprotech human recombinant BDNF (Cedarlane Laboratories, Toronto, Canada, cat. # PE 450-02-10) was reconstituted under sterile conditions to 3.5 μM in sterile HKR/1%BSA, and either used immediately or stored in aliquots of 20 μl at −80° C. Immediately prior to use, a 15 nM (30×) solution of ^125I-BDNF or ^125I-NGF was prepared in HKR buffer, and was used at 0.5 nM final concentration.
(§4) Test Compounds were dissolved to 10 mM in DMSO, and those that were not initially soluble were warmed to 40-50° C. and vortexed. Those compounds that were still not in solution were reported as such. Compounds were then stored in this form at −20° C. until use. Immediately before experiments, 100 mM compounds were diluted to 10 mM in DMSO (1:10), followed by a further dilution to 1 mM (1:10) with distilled water, and a further dilution to 500 μM (1:1) with HKR.
(§5) Assays to determine maximum binding (Bmax), non-specific binding (NSB), and binding in the presence of each test compound (e.g., x, y) were performed at least in duplicate. In a total volume of 300 μL, 4×10^6 PC12 cells were incubated, rotating for 2 h at 4° C. with the following:
(§6) At the conclusion of the binding reaction, 100 μL aliquots of the reaction mixtures were carefully layered over 200 μL of a 10% glycerol solution in a 0.4 mL tube, and subjected to centrifugation in a microcentrifuge for 2 minutes at half maximum speed. The cell pellets containing the bound ^125I-BDNF or ^125I-NGF were then measured using a gamma counter. The mean values of the replicates were then calculated to determine the value for maximum binding (Bmax) and nonspecific binding (NSB), and binding in the presence of test compound at 50 μM (Bx). Specific binding (SB) was measured by subtracting the NSB from the Bmax.

[2] = system: p75^NTR receptors (PC12 cells); experiment: Basic screening assay: binding of 125I-NGF to PC12 cells; conditions: Table 1; test compound 50 μM; 0.5 nM 125I-NGF; PC12 cells; 2 h at 4° C.; specific binding as percent of control
Experimental: as §1, §2
Lyophilized Serotec mouse 2.5S NGF (Cedarlane Laboratories, Toronto, Canada, cat. # PMP 04Z) was reconstituted under sterile conditions to 1 mg/mL (38 μM) in sterile 0.2% acetic acid, and 100 μL or 50 μL aliquots were stored frozen at −80° C.
as §3, §4, §5
as §6, with “Bmax. Specific binding in the presence of the test compound (SBx) was determined by subtracting the NSB from the Bx for each test compound; and each SBx was divided by SB and multiplied by 100 to give the specific binding in the presence of the compound as a percent of control specific binding.” for “Bmax.”

[3] = Table 1, test compound 50 μM, 0.5 nM 125I-BDNF, PC12 cells, 2 h at 4° C., specific binding as percent of control

SMILES: O=C1NC(=S)NC(=O)C1=Cc1ccc(-c2ccc([N+](=O)[O-])cc2Br)o1 [Compound 1, 5-[5-(2-Bromo-4-nitrophenyl)furan-2-ylmethylene]-2-thioxo-dihydro-pyrimidine-4,6-dione]
- activity at 50 µM [1]: 0 to 10%
- NGF Activity % Maximal Binding [2]: * (50 < *)

SMILES: Cc1ccc([N+](=O)[O-])cc1-c1ccc(/C=C2/SC(=S)NC2=O)o1 [Compound 2, 5-[5-(2-Methyl-5-nitrophenyl)furan-2-ylmethylene]-2-thioxo-thiazolidin-4-one]
- activity at 50 µM [1, 3]: 0 to 10%
- NGF Activity % Maximal Binding [2]: * (50 < *)

SMILES: O=C1NC(=S)NC(=O)C1=Cc1ccc(-c2ccc([N+](=O)[O-])cc2Cl)o1 [Compound 4, 5-[5-(2-Chloro-4-nitrophenyl)furan-2-ylmethylene]-2-thioxo-dihydro-pyrimidine-4,6-dione]
- activity at 50 µM [1]: 0 to 10%
- NGF Activity % Maximal Binding [2]: * (50 < *)

SMILES: O=C1NC(=S)S/C1=C/c1ccc(-c2ccc([N+](=O)[O-])cc2Cl)o1 [Compound 5, 5-[5-(2-Chloro-4-nitrophenyl)furan-2-ylmethylene]-2-thioxo-thiazolidin-4-one]
- activity at 50 µM [1, 3]: 0 to 10%
- NGF Activity % Maximal Binding [2]: * (50 < *)

SMILES: O=C1NC(=S)NC(=O)C1=Cc1ccc(-c2ccc(C(=O)O)cc2)o1 [Compound 6, 4-[5-(4,6-Dioxo-2-thioxo-tetrahydro-pyrimidin-5-ylidenemethyl)furan-2-yl]benzoic acid]
- activity at 50 µM [1]: 0 to 10%
- NGF Activity % Maximal Binding [2]: * (50 < *)

SMILES: Cc1cc([N+](=O)[O-])ccc1-c1ccc(C=C2SC(=S)NC2=O)o1 [Compound 7, 5-[5-(2-Methyl-4-nitrophenyl)furan-2-ylmethylene]-2-thioxo-thiazolidin-4-one]
- activity at 50 µM [1, 3]: 0 to 10%
- NGF Activity % Maximal Binding [2]: * (50 < *)

SMILES: COc1ccc(-c2ccc(C=C3C(=O)NC(=S)NC3=O)o2)cc1[N+](=O)[O-] [Compound 8, 5-[5-(4-Methoxy-3-nitrophenyl)furan-2-ylmethylene]-2-thioxo-dihydro-pyrimidine-4,6-dione]
- activity at 50 µM [1]: 0 to 10%
- NGF Activity % Maximal Binding [2]: * (50 < *)

SMILES: Cc1cccc(N2NC(=O)C(=Cc3ccc(-c4ccc(S(N)(=O)=O)cc4)o3)C2=O)c1 [Compound 9, 4-[5-(3,5-Dioxo-1-m-tolyl-pyrazolidin-4-ylidenemethyl)furan-2-yl]benzenesulfonamide]
- activity at 50 µM [1, 3]: 0 to 10%
- NGF Activity % Maximal Binding [2]: * (50 < *)

SMILES: O=C(O)CCN1C(=O)C(=Cc2ccc(-c3ccc([N+](=O)[O-])cc3)o2)SC1=S [Compound 10, 3-{5-[5-(4-Nitrophenyl)furan-2-ylmethylene]-4-oxo-2-thioxo-thiazolidin-3-yl}-propionic acid]
- activity at 50 µM [1, 3]: 0 to 10%
- NGF Activity % Maximal Binding [2]: * (50 < *)

SMILES: O=C1NC(=O)C(=Cc2ccc(-c3ccc([N+](=O)[O-])cc3Cl)o2)C(=O)N1 [Compound 11, 5-[5-(2-Chloro-4-nitrophenyl)furan-2-ylmethylene]-pyrimidine-2,4,6-trione]
- activity at 50 µM [1]: 0 to 10%
- NGF Activity % Maximal Binding [2]: * (50 < *)

SMILES: CCCCOC(=O)c1ccc(-c2ccc(/C=C3/SC(=S)N(CC(=O)O)C3=O)o2)cc1 [Compound 12, 4-[5-(3-Carboxymethyl-4-oxo-2-thioxo-thiazolidin-5-ylidenemethyl)furan-2-yl]benzoic acid butyl ester]
- activity at 50 µM [1, 3]: 0 to 10%
- NGF Activity % Maximal Binding [2]: * (50 < *)

SMILES: O=C(O)c1ccc(Cl)c(-c2ccc(/C=C3/NC(=O)N(Cc4ccc(F)cc4)C3=O)o2)c1 [Compound 13, 4-Chloro-3-{5-[1-(4-fluorobenzyl)-2,5-dioxo-imidazolidin-4-ylidenemethyl]furan-2-yl}benzoic acid]
- activity at 50 µM [1, 3]: 0 to 10%
- NGF Activity % Maximal Binding [2]: * (50 < *)

SMILES: Cc1ccc(-c2ccc(/C=C3/SC(=S)N(CC(=O)O)C3=O)o2)cc1[N+](=O)[O-] [Compound 14, {5-[5-(4-Methyl-3-nitrophenyl)furan-2-ylmethylene]-4-oxo-2-thioxo-thiazolidin-3-yl}-acetic acid]
- activity at 50 µM [1, 3]: 0 to 10%
- NGF Activity % Maximal Binding [2]: * (50 < *)

SMILES: Cc1cc(-c2ccc(C=C3SC(=S)N(CC(=O)O)C3=O)o2)ccc1[N+](=O)[O-] [Compound 15, {5-[5-(3-Methyl-4-nitrophenyl)furan-2-ylmethylene]-4-oxo-2-thioxo-thiazolidin-3-yl}-acetic acid]
- activity at 50 µM [1, 3]: 0 to 10%

SMILES: Cc1ccc(C(=O)O)cc1-c1ccc(/C=C2/NC(=O)N(c3ccccc3)C2=O)o1 [Compound 16, 3-[5-(2,5-Dioxo-1-phenyl-imidazolidin-4-ylidenemethyl)furan-2-yl]-4-methylbenzoic acid]
- activity at 50 µM [1, 3]: 0 to 10%
- NGF Activity % Maximal Binding [2]: * (50 < *)

SMILES: CN1C(=O)NC(=O)C(=Cc2ccc(-c3ccc(C(=O)O)cc3)o2)C1=O [Compound 17, 4-[5-(1-Methyl-2,4,6-trioxo-tetrahydro-pyrimidin-5-ylidenemethyl)furan-2-yl]benzoic acid]
- activity at 50 µM [1]: 0 to 10%
- NGF Activity % Maximal Binding [2]: * (50 < *)

SMILES: Cc1cc([N+](=O)[O-])c(C)cc1-c1ccc(C=C2C(=O)NC(=O)NC2=O)o1 [Compound 18, 5-[5-(2,5-Dimethyl-4-nitrophenyl)furan-2-ylmethylene]-pyrimidine-2,4,6-trione]
- activity at 50 µM [1]: 0 to 10%
- NGF Activity % Maximal Binding [2]: * (50 < *)

SMILES: COC(=O)c1ccc(-c2ccc(C=C3C(=O)NC(=S)NC3=O)o2)cc1 [Compound 19, 4-[5-(4,6-Dioxo-2-thioxo-tetrahydro-pyrimidin-5-ylidenemethyl)furan-2-yl]benzoic acid methyl ester]
- activity at 50 µM [1]: 0 to 10%
- NGF Activity % Maximal Binding [2]: * (50 < *)

SMILES: COc1ccc(-c2ccc(/C=C3\SC(=S)NC3=O)o2)cc1[N+](=O)[O-] [Compound 20, 5-[5-(4-Methoxy-3-nitrophenyl)furan-2-ylmethylene]-2-thioxo-thiazolidin-4-one]
- activity at 50 µM [1, 3]: 0 to 10%
- NGF Activity % Maximal Binding [2]: * (50 < *)

SMILES: CCOC(=O)CN1C(=O)S/C(=C/c2ccc(-c3cc(C(=O)O)ccc3C)o2)C1=O [Compound 21, 3-[5-(3-Ethoxycarbonylmethyl-2,4-dioxo-thiazolidin-5-ylidenemethyl)furan-2-yl]-4-methylbenzoic acid]
- activity at 50 µM [1, 3]: 0 to 10%
- NGF Activity % Maximal Binding [2]: * (50 < *)

SMILES: Cc1ccc(C(=O)O)cc1-c1ccc(/C=C2/NC(=O)NC2=O)o1 [Compound 22, 3-[5-(2,5-Dioxo-imidazolidin-4-ylidenemethyl)furan-2-yl]-4-methylbenzoic acid]
- activity at 50 µM [1, 3]: 0 to 10%
- NGF Activity % Maximal Binding [2]: * (50 < *)

SMILES: Cc1ccc(N2NC(=O)C(=Cc3ccc(-c4ccc([N+](=O)[O-])cc4Cl)o3)C2=O)cc1C [Compound 23, 4-[5-(2-Chloro-4-nitrophenyl)furan-2-ylmethylene]-1-(3,4-dimethylphenyl)-pyrazolidine-3,5-dione]
- activity at 50 µM [1, 3]: 0 to 10%
- NGF Activity % Maximal Binding [2]: * (50 < *)
